# Results: patent publication EP4786487A1, “PEPTIDE” (Peptidream Inc, priority 2023, dated 2025)
# Starred links: 1 amine or outer side, 2 acyl side, 3 side chain; linkers in the order of their positions; H or OH if unused. Positions of bridges follow the written chain, without caps; N, C: chain ends. Non-standard residues stand in square brackets, D forms with d. Residues, ends and D or L forms follow the SMILES beside them. Phe(3-OCH2COOH) = N[C@@H](Cc1cccc(OCC(=O)O)c1)C(=O)O; Phe(4-COOH) = N[C@@H](Cc1ccc(C(=O)O)cc1)C(=O)O; Gly(N(CH2)3COOH) = O=C(O)CCCNCC(=O)O; X1 = CCCCCCC[C@H](N[*:1])C(=O)[*:2]; NMeF = CN[C@@H](Cc1ccccc1)C(=O)O; NMeA = CN[C@@H](C)C(=O)O
# Test system: DBA/2 mdx model mice
# Test: Subcutaneously administered peptide, improvement of muscle strength in DBA/2 mdx mice
# Type: in vivo, DBA/2N-mdx mice
# Conditions: Fig. 5
# Procedure: In this Example, the effect of the peptide Myostatin_99_v145 (SEQ ID NO: 30) was evaluated on improvement of muscle strength in DMD model mice.
# To twenty-week-old female DBA/2N-mdx mice (Central Institute for Experimental Medicine and Life Science), Myostatin_99_v145 or solvent control (PBS) was subcutaneously administered once a week for 4 weeks as shown in Table 12. As a Comparative Example, a single intravenous dose of anti-latent myostatin antibody (GYM329-BS) was administered.
# Using a smart-type grip strength meter for rats and mice (MK-380V; Muromachi Kikai Co., Ltd.), forelimb and hindlimb grip strength measurements were performed on the day of completion of the acclimation period (grouping day), and on Days 7, 14, 21, and 26. The measurements were conducted with individual identification numbers blinded so that the examiner was unaware of the test conditions of the mice. The grip strength was measured seven times consecutively, and the average of five points, excluding the two points: the highest and lowest values, was used as individual data.
structure (smiles),measurement,setting,value
CCCCCCC[C@@H]1NC(=O)[C@H](Cc2ccccc2)N(C)C(=O)[C@H](CCCNC(=N)N)NC(=O)[C@H](Cc2ccc(C(=O)O)cc2)NC(=O)[C@H](Cc2cccc(OCC(=O)O)c2)NC(=O)[C@H](C)N(C)C(=O)[C@H]([C@@H](C)CC)NC(=O)[C@H](Cc2ccccc2)N(C)C(=O)[C@H](Cc2ccc(O)cc2)NC(=O)[C@H](Cc2c[nH]c3ccccc23)NC(=O)[C@H](C)NC(=O)CN(CCCC(=O)O)C(=O)CSC[C@H](C(=O)O)NC(=O)[C@H](Cc2ccccc2)N(C)C(=O)[C@H](C)N(C)C1=O [Myostatin_99_v145] ({CH2CO}-[Gly(N(CH2)3COOH)]AWY[NMeF]I[NMeA][Phe(3-OCH2COOH)][Phe(4-COOH)]R[NMeF][X1][NMeA][NMeF][dC]-OH; thioether N-15),time-course change in grip strength,"1 and 3 mg/kg subcutaneous once a week for 4 weeks, vs. PBS Vehicle group",continuous increase in grip strength was observed in a dose-dependent manner
same,maximum effect (grip strength) compared with GYM329-BS,GYM329-BS 10 mg/kg single intravenous dose,higher than that of GYM329-BS
